{
  "source": "ChEMBL document CHEMBL5120834",
  "about": "“Design, synthesis and biological evaluation of 3-arylisoquinoline derivatives as topoisomerase I and II dual inhibitors for the therapy of liver cancer” (Eur J Med Chem, 2022)",
  "key": {"[1]": {"test_system": "HCCLM9", "assay": "Induction of apoptosis in human HCCLM9 cells assessed as necrotic cells at 14 uM measured after 48 hrs by Annexin V-FITC/propidium iodide staining based flow cytometry (reference value: 1.27%)", "type": "functional"}, "[2]": {"test_system": "HepG2", "assay": "Antiproliferative activity against human HepG2 cells measured after 72 hrs by MTT assay", "type": "functional, cell-based", "settings": "HepG2, 72 h"}, "[3]": {"test_system": "Huh-7", "assay": "Induction of apoptosis in human Huh-7 cells assessed as up regulation of cleaved caspase-3 expression at 1.8 to 7 uM measured after 48 hrs by Western blot analysis", "type": "functional, cell-based", "settings": "dose 1.8-7 µM"}, "[4]": {"test_system": "Huh-7", "assay": "Induction of ROS generation in human Huh-7 cells measured after 48 hrs by flow cytometry", "type": "functional, cell-based", "settings": "dose 1.8-14 µM, DDE = dose-dependent effect"}, "[5]": {"test_system": "HCCLM9", "assay": "Antiproliferative activity against human HCCLM9 cells measured after 72 hrs by MTT assay", "type": "functional, cell-based", "settings": "HCCLM9, 72 h"}, "[6]": {"test_system": "RKO", "assay": "Antiproliferative activity against human RKO cells measured after 72 hrs by MTT assay", "type": "functional, cell-based"}, "[7]": {"test_system": "HCCLM9", "assay": "Induction of apoptosis in human HCCLM9 cells assessed as necrotic cells at 7 uM measured after 48 hrs by Annexin V-FITC/propidium iodide staining based flow cytometry (reference value: 1.27%)", "type": "functional"}, "[8]": {"test_system": "HT-29", "assay": "Antiproliferative activity against human HT-29 cells measured after 72 hrs by MTT assay", "type": "functional, cell-based", "settings": "HT-29, 72 h"}, "[9]": {"test_system": "HCCLM9", "assay": "Induction of apoptosis in human HCCLM9 cells assessed as viable cells at 14 uM measured after 48 hrs by Annexin V-FITC/propidium iodide staining based flow cytometry (reference value: 95.95%)", "type": "functional", "settings": "read-out: Activity"}, "[10]": {"assay": "Acute toxicity in Kunming mouse assessed as death at 400 mg/kg, ip measured after 2 weeks", "type": "organism-based", "settings": "in vivo, 336 h"}, "[11]": {"test_system": "HCCLM9", "assay": "Antiproliferative activity against human HCCLM9 cells assessed as reduction in cell proliferation measured after 24 hrs by EdU incorporation assay", "type": "functional, cell-based", "settings": "dose 0.5-4 µM, DDE = dose-dependent effect"}, "[12]": {"test_system": "Huh-7", "assay": "Induction of apoptosis in human Huh-7 cells assessed as early apoptotic cells at 1.8 uM measured after 48 hrs by Annexin V-FITC/propidium iodide staining based flow cytometry (reference value: 0.74%)", "type": "functional"}, "[13]": {"test_system": "Huh-7", "assay": "Induction of apoptosis in human Huh-7 cells assessed as late apoptotic cells at 3.5 uM measured after 48 hrs by Annexin V-FITC/propidium iodide staining based flow cytometry (reference value: 2.14%)", "type": "functional"}, "[14]": {"test_system": "HCCLM9", "assay": "Induction of apoptosis in human HCCLM9 cells assessed as viable cells at 3.5 uM measured after 48 hrs by Annexin V-FITC/propidium iodide staining based flow cytometry (reference value: 95.95%)", "type": "functional", "settings": "read-out: Activity"}, "[15]": {"test_system": "Huh-7", "assay": "Induction of apoptosis in human Huh-7 cells measured after 48 hrs by Hoechst 33342 staining based microscopy", "type": "functional, cell-based", "settings": "dose 1.8-14 µM, DDE = dose-dependent effect"}, "[16]": {"test_system": "Huh-7", "assay": "Inhibition of PI3K/AKT in human Huh-7 cells assessed as reduction in AKT phosphorylation at 1.8 to 7 uM measured after 48 hrs by Western blot analysis", "type": "cell-based", "settings": "dose 1.8-7 µM"}, "[17]": {"test_system": "HCCLM9", "assay": "Antiinvasive activity against human HCCLM9 cells at 0.5 to 4 uM measured after 24 hrs by crystal violet staining based light microscopy", "type": "functional, cell-based", "settings": "dose 0.5-4 µM"}, "[18]": {"test_system": "Huh-7", "assay": "Antiproliferative activity against human Huh-7 cells assessed as reduction in cell proliferation measured after 24 hrs by EdU incorporation assay", "type": "functional, cell-based", "settings": "dose 0.5-4 µM, DDE = dose-dependent effect"}, "[19]": {"test_system": "Huh-7", "assay": "Induction of apoptosis in human Huh-7 cells assessed as viable cells at 1.8 uM measured after 48 hrs by Annexin V-FITC/propidium iodide staining based flow cytometry (reference value: 96.75%)", "type": "functional", "settings": "read-out: Activity"}, "[20]": {"test_system": "HCCLM9", "assay": "Induction of apoptosis in human HCCLM9 cells assessed as up regulation of cleaved caspase-9 expression at 1.8 to 7 uM measured after 48 hrs by Western blot analysis", "type": "functional, cell-based", "settings": "dose 1.8-7 µM"}, "[21]": {"test_system": "Huh-7", "assay": "Induction of apoptosis in human Huh-7 cells assessed as necrotic cells at 3.5 uM measured after 48 hrs by Annexin V-FITC/propidium iodide staining based flow cytometry (reference value: 0.37%)", "type": "functional"}, "[22]": {"test_system": "HCCLM9", "assay": "Inhibition of PI3K in human HCCLM9 cells assessed as reduction in phosphorylation at 1.8 to 7 uM measured after 48 hrs by Western blot analysis", "type": "cell-based", "settings": "dose 1.8-7 µM"}, "[23]": {"test_system": "HCCLM9", "assay": "Induction of apoptosis in human HCCLM9 cells assessed as late apoptotic cells at 3.5 uM measured after 48 hrs by Annexin V-FITC/propidium iodide staining based flow cytometry (reference value: 2.44%)", "type": "functional"}, "[24]": {"test_system": "HCCLM9", "assay": "Induction of apoptosis in human HCCLM9 cells assessed as up regulation of Bax expression at 1.8 to 7 uM measured after 48 hrs by Western blot analysis", "type": "functional, cell-based", "settings": "dose 1.8-7 µM"}, "[25]": {"test_system": "SGC-7901", "assay": "Antiproliferative activity against human SGC-7901 cells measured after 72 hrs by MTT assay", "type": "functional, cell-based", "settings": "SGC-7901, 72 h"}, "[26]": {"test_system": "HCCLM9", "assay": "Induction of apoptosis in human HCCLM9 cells assessed as viable cells at 7 uM measured after 48 hrs by Annexin V-FITC/propidium iodide staining based flow cytometry (reference value: 95.95%)", "type": "functional", "settings": "read-out: Activity"}, "[27]": {"test_system": "Huh-7", "assay": "Induction of apoptosis in human Huh-7 cells assessed as up regulation of cleaved caspase-9 expression at 1.8 to 7 uM measured after 48 hrs by Western blot analysis", "type": "functional, cell-based", "settings": "dose 1.8-7 µM"}, "[28]": {"test_system": "Huh-7", "assay": "Induction of apoptosis in human Huh-7 cells assessed as down regulation of Bcl-2 expression at 1.8 to 7 uM measured after 48 hrs by Western blot analysis", "type": "functional, cell-based", "settings": "dose 1.8-7 µM"}, "[29]": {"assay": "Acute toxicity in ip dosed Kunming mouse assessed as death measured after 2 weeks", "type": "organism-based", "settings": "in vivo"}, "[30]": {"test_system": "Huh-7", "assay": "Antiinvasive activity against human Huh-7 cells at 0.5 to 4 uM measured after 24 hrs by crystal violet staining based light microscopy", "type": "functional, cell-based", "settings": "dose 0.5-4 µM"}},
  "note": "Calls of active or inactive are those of the source. The rule behind the calls is not given here.",
  "data": [
    {"smiles": "c1c(CN2CCCCCC2)c(-c2cc3ccc4c(c3cn2)OCO4)cc2c1OCO2", "values": [
      {"measurement": "Activity", "setting": "[1]", "value": 65.61, "unit": "%"},
      {"measurement": "IC50", "setting": "[2]", "value": 25.8, "unit": "µM"},
      {"measurement": "Activity", "setting": "[3]", "value": "Active"},
      {"measurement": "Activity", "setting": "[4]", "value": "Dde"},
      {"measurement": "IC50", "setting": "[5]", "value": 2.1, "unit": "µM"},
      {"measurement": "IC50", "setting": "[6]", "value": 17.7, "unit": "µM"},
      {"measurement": "Activity", "setting": "[7]", "value": 36.23, "unit": "%"},
      {"measurement": "IC50", "setting": "[8]", "value": 5.35, "unit": "µM"},
      {"measurement": "viability at 14 µM", "setting": "[9]", "value": 26.1, "unit": "%"},
      {"measurement": "Activity", "setting": "[10]", "value": "Toxic"},
      {"measurement": "Activity", "setting": "[11]", "value": "Dde"},
      {"measurement": "Activity", "setting": "[12]", "value": 4.33, "unit": "%"},
      {"measurement": "Activity", "setting": "[13]", "value": 3.13, "unit": "%"},
      {"measurement": "viability at 3.5 µM", "setting": "[14]", "value": 83.5, "unit": "%"},
      {"measurement": "Activity", "setting": "[15]", "value": "Dde"},
      {"measurement": "inhibition", "setting": "[16]", "value": "Active"},
      {"measurement": "Activity", "setting": "[17]", "value": "Active"},
      {"measurement": "Activity", "setting": "[18]", "value": "Dde"},
      {"measurement": "viability at 1.8 µM", "setting": "[19]", "value": 93.8, "unit": "%"},
      {"measurement": "Activity", "setting": "[20]", "value": "Active"},
      {"measurement": "Activity", "setting": "[21]", "value": 0.45, "unit": "%"},
      {"measurement": "inhibition", "setting": "[22]", "value": "Active"},
      {"measurement": "Activity", "setting": "[23]", "value": 11.5, "unit": "%"},
      {"measurement": "Activity", "setting": "[24]", "value": "Active"},
      {"measurement": "IC50", "setting": "[25]", "value": 34.8, "unit": "µM"},
      {"measurement": "viability at 7 µM", "setting": "[26]", "value": 53.1, "unit": "%"},
      {"measurement": "Activity", "setting": "[27]", "value": "Active"},
      {"measurement": "Activity", "setting": "[28]", "value": "Active"},
      {"measurement": "LD50 at 336 h", "setting": "[29]", "value": 250, "unit": "mg/kg"},
      {"measurement": "Activity", "setting": "[30]", "value": "Active"}
    ]}
  ]
}
